Reference: publication PMC9585585, “Discovery of Small-Molecule Allosteric Inhibitors of PfATC as Antimalarials” (Journal of the American Chemical Society, 2022)
Values joined by “and” are separate entries in the source; they are usually repeats but may differ in a detail not shown here. Equal values may be shown once. Read-outs that look alike come from different tables or passages of the source.

Key:
normal lymphocytes = experiment: Human cell line experiments, AlamarBlue, normal lymphocytes; type: cell-based; conditions: for EC50: Hs normal lymphocytes, 72 hours, read-out: EC50 against normal lymphocytes; for cytotoxicity against cultured human lymphocytes: at 100 μM
Experimental: page 4: […] 418one in 50% (v/v) sulfuric acid) and one volume of 2,3-Butanedione monoxime (80 mM 2,3- 419Butanedione monoxime in 5% (v/v) acetic acid). After plates were sealed with transparent sealing 420tape to prevent evaporation and incubated overnight in the dark place at room temperature. After 421incubation, the plates were heated at 95 °C for 15 min in dark place, and kept for 30 min before 422measuring at 466 nm suing a Synergy H1 Hybrid Reader (BioTek). Analyses were performed using 423Microsoft Excel and Graph Pad Prism. 424HsATC activity assay. The enzymatic assay was performed as described herein above for 425enzymatic assay of PfATC with minor modifications. Briefly, the reaction was carried out at room 426temperature in a total volume of 150 μl of 10 mM L-aspartate and 5 mM carbamoyl phosphate 427saturated substrate solution in 50 mM Tris-Acetate buffer pH 8.3. hsATC was pre-incubated with 428inhibitor and L-Asp for 10 min at room temperature on a shaker. The reaction was initiated by 429adding CP and stopped after 5 min with […] color mix. Then the plate was covered by sealing 430tape and kept in dark place at room temperature and then heated to 95 °C for 15min in dark and kept 431the plate in the dark for another 30 min before measuring the absorbance at 466 nm suing a Synergy 432H1 Hybrid Reader (BioTek). Analyses were performed using Microsoft Excel and Graph Pad 433Prism. 434Human cell line experiments. The cell lines A375 (melanoma), H1299 (lungca), MCF7 435(breastca), REC-1 (mantel cell lymphoma, SUDHL2 (diffuse large B-cell lymphoma) and normal 436lymphocytes (obtained from tonsils) were cultured in RPMI 1640 (Lonza BioWhittaker, 437Walkersville, MD, USA) with 10% fetal bovine serum (FBS; HyClone Thermo Scientific, 438Waltham, MA, USA). Cells were plated in 96-wells plates and incubated with increasing 439concentrations of compounds for 72 hours as indicated. All experiments were performed in page 5: 440triplicate. AlamarBlue (Thermo Fisher Scientific, Waltham, MA USA) was added eight hours prior 441to read-out (extinction 560nm, emission 590nm). […] A freshly prepared protein 443solution at a concentration of 10 mg ml -1 and immediately used in crystallization trials. The 444screening for crystallization conditions for PfATC was performed using a high-through 445crystallization robot (Gryphon, Art Robbins) against commercially available sparse-matrix 446screening kits (JCSG plus and PACT premier; Molecular Dimensions Ltd.). All experiments were 447performed at 293 K using the sitting drop vapor diffusion technique in 96 well MRC2 plates 448(Molecular Dimensions Ltd.). Equal volumes (0.2 μL) of protein solution and crystallization 449reagent were equilibrated against 50 μL of reservoir solution. Medium size single crystals appeared 450overnight in various conditions containing PEG3350/4000. The apo-crystals were soaked for 10 […] 452the solution plus 20% glycerol, flash-cooled and stored in liquid nitrogen. The flashed cooled 453crystals was shipped to […], Deutsches Elektronen-Synchrotron DESY Beamline P11. […] The purified PfATC […] 457stocks in 100% DMSO) at a molar ratio of 1:5. The mixture was incubated at 20 °C for 40 minutes, 458then centrifugation was performed to remove the precipitate. The supernatant was immediately 459used in crystallization trials. The crystallization reagent were the same as apo crystallization […] The crystals were flash- 461cooled and stored in liquid nitrogen, and was shipped to […], Deutsches Elektronen- 462Synchrotron DESY Beamline P11.

HsATC = biological target: T1, HsATC (Homo sapiens, UniProt P27708); experiment: HsATC activity assay; type: biochemical; conditions: in vitro activity assay
T1 construct: ATCase domain of CAD; made in house; host or cells: E. coli BL21 star
T1 sequence (P27708 1918-2225 limits assumed): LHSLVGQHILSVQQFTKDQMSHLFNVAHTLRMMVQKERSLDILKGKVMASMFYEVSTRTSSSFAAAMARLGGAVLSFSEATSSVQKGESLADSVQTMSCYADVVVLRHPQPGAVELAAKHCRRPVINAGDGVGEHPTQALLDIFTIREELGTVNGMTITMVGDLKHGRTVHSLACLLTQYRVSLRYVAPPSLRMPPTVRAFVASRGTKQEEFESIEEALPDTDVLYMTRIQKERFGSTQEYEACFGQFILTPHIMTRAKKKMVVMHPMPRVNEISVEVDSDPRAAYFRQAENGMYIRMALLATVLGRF
Experimental: 417100μL of stop mix (two volumes of Antipyrine (26.5 mM 2,3-Dimethyl-1-phenyl-3-pyrazolin-5-
418one in 50% (v/v) sulfuric acid) and one volume of 2,3-Butanedione monoxime (80 mM 2,3-
419Butanedione monoxime in 5% (v/v) acetic acid). After plates were sealed with transparent sealing
(§1) 420tape to prevent evaporation and incubated overnight in the dark place at room temperature. After
421incubation, the plates were heated at 95 °C for 15 min in dark place, and kept for 30 min before
422measuring at 466 nm suing a Synergy H1 Hybrid Reader (BioTek). Analyses were performed using
423Microsoft Excel and Graph Pad Prism.
424HsATC activity assay. The enzymatic assay was performed as described herein above for
425enzymatic assay of PfATC with minor modifications. Briefly, the reaction was carried out at room
426temperature in a total volume of 150 μl of 10 mM L-aspartate and 5 mM carbamoyl phosphate
427saturated substrate solution in 50 mM Tris-Acetate buffer pH 8.3. hsATC was pre-incubated with
428inhibitor and L-Asp for 10 min at room temperature on a shaker. The reaction was initiated by
429adding CP and stopped after 5 min with […] color mix. Then the plate was covered by sealing
(§2) 430tape and kept in dark place at room temperature and then heated to 95 °C for 15min in dark and kept
431the plate in the dark for another 30 min before measuring the absorbance at 466 nm suing a Synergy
432H1 Hybrid Reader (BioTek). […]

PfATC = PfATC (Plasmodium falciparum, UniProt A0A5K1K910); experiment: biochemical; conditions: for IC50: in vitro activity assay, PfATC 50 nM, 2 mM CP, 1 mM aspartate, read-out: PfATC IC50
Sequence of PfATC (A0A5K1K910 entry or part of it): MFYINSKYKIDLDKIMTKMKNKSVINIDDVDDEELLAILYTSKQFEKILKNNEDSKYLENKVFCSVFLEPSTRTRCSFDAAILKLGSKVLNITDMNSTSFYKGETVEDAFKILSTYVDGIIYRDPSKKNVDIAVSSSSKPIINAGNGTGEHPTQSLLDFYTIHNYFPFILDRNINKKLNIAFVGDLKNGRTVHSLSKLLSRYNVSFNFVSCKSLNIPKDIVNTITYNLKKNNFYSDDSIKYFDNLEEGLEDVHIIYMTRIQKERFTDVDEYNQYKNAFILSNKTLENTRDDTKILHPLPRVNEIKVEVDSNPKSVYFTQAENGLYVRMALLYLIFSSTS
Experimental: Following washing with Lysis buffer
Excess imidazole was removed and the His-tag was cleaved
400Then, the sample was loaded onto a 5 ml HiTrap SP HP column (GE Healthcare, USA) and
410PfATC activity assay. Enzymatic reactions were performed in a total volume of 150 µL in 50 mM
Small-molecule dose-response curves were
The reactions were initiated by adding CP and quenched after 10 min with
After plates were sealed with transparent sealing
as §1
Analyses were performed using
The enzymatic assay was performed as described herein above for
Briefly, the reaction was carried out at room
The reaction was initiated by
Then the plate was covered by sealing
as §2

[1] = 10 mM L-aspartate, 5 mM carbamoyl phosphate, read-out: HsATC IC50

IC50 (HsATC; [1]) | IC50 (HsATC; n = 3, read-out: IC50 against HsATC) | IC50 (PfATC) | mechanism of inhibition (PfATC; with CP and Asp, 0, 200 and 400 nM BDA-04, one substrate fixed (2 mM CP or 1 mM Asp)) | Structure (SMILES) | EC50 (normal lymphocytes; Homo sapiens, Lymphocyte) | cytotoxicity against cultured human lymphocytes (normal lymphocytes) | EC50 (normal lymphocytes)
2.84 µM | 2.8 µM and 2.84 µM | 0.0772 µM | noncompetitive inhibitor | CC(C)(C)OC(=O)Nc1sc(-c2ccccc2)cc1C(=O)NCCc1ccccc1 [BDA-04] | ~1000 µM | no cytotoxicity | –
0.116 µM | – | 0.0456 µM and 0.046 µM and 0.0457 µM | – | CC(C)(C)OC(=O)Nc1sc(-c2ccccc2)cc1C(=O)NCCc1ccc(O)cc1 [BDA-11] | – | – | 757 µM
0.316 µM | – | 0.103 µM | – | COc1cccc(CCNC(=O)c2cc(-c3ccccc3)sc2NC(=O)OC(C)(C)C)c1 [BDA-24] | – | – | 911 µM

Structure (SMILES) | IC50 (HsATC; [1]) | IC50 (HsATC; n = 3, read-out: IC50 against HsATC) | IC50 (PfATC) | mechanism of inhibition (PfATC; with CP and Asp, 0, 200 and 400 nM BDA-04, one substrate fixed (2 mM CP or 1 mM Asp)) | EC50 (normal lymphocytes; Homo sapiens, Lymphocyte) | cytotoxicity against cultured human lymphocytes (normal lymphocytes) | EC50 (normal lymphocytes)
CC(C)(C)OC(=O)Nc1sc(-c2ccccc2)cc1C(=O)NCCO [BDA-14] | 0.137 µM | – | 0.115 µM and 0.114 µM | – | – | no cytotoxicity | > 1000 µM
